According to PMC6720008, “A Novel Peptide Ameliorates LPS-Induced Intestinal Inflammation and Mucosal Barrier Damage via Its Antioxidant and Antiendotoxin Effects” (International Journal of Molecular Sciences, 2019):
Read-outs that look alike come from different tables or passages of the source. Ends that are not written are not given here.

Legend:
[1] = Ex vivo stability in plasma; format: in vitro ADME, rat
Procedure: Figure 2 The mean plasma concentrations of LL-37, TP5, and LTP over times. The concentration of each target peptide in plasma in vitro at the selected times was quantified by HPLC.
Rat plasma was collected from healthy adult rats by centrifugation of whole blood samples. LL-37, TP5, and LTP were directly added to rat plasma (10 μg/mL), after which the plasma samples were incubated in a 37 °C water bath. At different times, the samples were collected into pre-chilled tubes which contained 1 mL of acidic acetone (hydrochloric acid/acetone/H2O, 1:40:5, by volume). Subsequently, the mixture was centrifuged at 2 × 10^4 rpm at 4 °C for 20 min. The precipitates were dried in vacuo, after which the dried precipitates were dissolved in 0.5 mL of 1 M acetic acid. The peptide analysis was carried out according to the protocol for the study of TP5 using HPLC [64]. The half-lives of the peptides were calculated by a logarithm-linear regression analysis of the peptide concentrations.

[2] = test system: RAW264.7 macrophage cells; conditions: CCK-8, 24 h or 72 h
Procedure: RAW264.7 cells were pre-seeded in DMEM medium overnight. The cells were treated with various concentrations of peptides or without peptides at 37 °C and 5% CO2 for 24 h (A) or 72 h (B). They were incubated with CCK-8 solution for 4 h, and then, they were measured at 450 nm. Data are given as the mean value ± standard error from eight biological replicates. *: p ≤ 0.05, **: p ≤ 0.01, ***: p ≤ 0.001.
The murine macrophage cell line RAW264.7 was purchased from the Shanghai Cell Bank, the Institute of Cell Biology, China Academy of Sciences (Shanghai, China). RAW264.7 cells were cultured in Dulbecco’s modified Eagle’s medium (DMEM; Hyclone, Logan, UT, USA) supplemented with 10% (v/v) foetal bovine serum (Bioscience) and 1% (v/v) penicillin/streptomycin (Hyclone) in a 37 °C humidified incubator containing 5% CO2.
The viability of peptide-treated RAW264.7 cells was measured using the Cell Counting Kit-8 (CCK-8) Assay Kit (Dojindo, Japan) [63]. The cells were pre-seeded on a 96-well plate at a density of 3 × 10^4 cells/mL overnight. […] The absorbance at 450 nm was measured with a microplate reader. Cell viability was calculated as: Cell viability (%) = (OD450 (sample)/OD450(control)) × 100%(1) where OD450 (sample) is the absorbance at 450 nm of the cells with peptides treated, and OD450 (control) is the absorbance at 450 nm of the cells without peptides treated.

[3] = In vitro LPS neutralization, chromogenic end-point TAL assay; format: biochemical; conditions: LPS 1.0 U/mL, peptide 0 to 64 μg/mL, 37 °C 15 min, absorbance 540 nm, three biological replicates
Procedure: Figure 9 LPS neutralization activity of LTP in vitro and in vivo. (A) The LPS concentration in mouse plasma. (B) In-vitro LPS neutralization by LTP. LPS neutralization activity of LTP, LL-37, TP5, and PMB were determined using the chromogenic in vitro TAL assay. Data are presented as the mean value ± standard error from three biological replicates. *: p ≤ 0.05, ****: p ≤ 0.0001.
The neutralization of LPS by the peptides was detected using a quantitative Chromogenic End-point Tachypleus Amebocyte Lysate (CE TAL) assay with the QCL-1000 kit (Xiamen, China). Experiments were carried out according to the institutional guidelines. A constant concentration of LPS (1.0 U/mL final concentration) was incubated with different concentrations of polymyxin B (PMB) or the peptides (0 to 64 μg/mL final concentration) at 37 °C for 15 min in the wells of pyrogenic sterile microliters plates. Subsequently, the mixtures were incubated at 37 °C for 6 min in the presence of TAL assay reagent, after which the absorbances were measured at 540 nm.

[4] = rat plasma, peptide 10 μg/mL, 37 °C water bath, HPLC, logarithm-linear regression, mean ± standard error, three biological replicates, read-out: t1/2

Compound: CC[C@H](C)[C@H](NC(=O)[C@H](CCCCN)NC(=O)[C@H](CCC(=O)O)NC(=O)[C@H](CCCCN)NC(=O)[C@H](CO)NC(=O)[C@H](CCCCN)NC(=O)[C@H](CCCNC(=N)N)NC(=O)[C@H](Cc1ccccc1)NC(=O)[C@H](Cc1ccccc1)NC(=O)[C@H](CC(=O)O)NC(=O)CNC(=O)[C@H](CC(C)C)NC(=O)[C@@H](N)CC(C)C)C(=O)NCC(=O)N[C@@H](CCCCN)C(=O)N[C@@H](CCC(=O)O)C(=O)N[C@@H](Cc1ccccc1)C(=O)N[C@@H](CCCCN)C(=O)N[C@@H](CCCNC(=N)N)C(=O)N[C@H](C(=O)N[C@H](C(=O)N[C@@H](CCC(N)=O)C(=O)N[C@@H](CCCNC(=N)N)C(=O)N[C@H](C(=O)N[C@@H](CCCCN)C(=O)N[C@@H](CC(=O)O)C(=O)N[C@@H](Cc1ccccc1)C(=O)N[C@@H](CC(C)C)C(=O)N[C@@H](CCCNC(=N)N)C(=O)N[C@@H](CC(N)=O)C(=O)N[C@@H](CC(C)C)C(=O)N[C@H](C(=O)N1CCC[C@H]1C(=O)N[C@@H](CCCNC(=N)N)C(=O)N[C@H](C(=O)N[C@@H](CCC(=O)O)C(=O)N[C@@H](CO)C(=O)O)[C@@H](C)O)C(C)C)[C@@H](C)CC)C(C)C)[C@@H](C)CC [LL-37]
- half-life at 10 μg/mL ([1]; rat, plasma): 4.04 ± 0.752 h

Compound: IGKEFKRIVQRIKDFLRNLVPRTERKDVY [LTP]
- half-life in plasma t1/2: 4 h
- half-life at 10 μg/mL [1, 4]: 4 ± 0.919 h
- cytotoxicity on RAW264.7 cells compared with the parental peptides ([2]; eight biological replicates): lower cytotoxicity than LL-37 and TP5
- cytotoxicity towards RAW264.7 cells ([2]; highest concentration of 60 μg/mL, 37 °C, 5% CO2, absorbance 450 nm, mean of eight biological replicates): no significant cytotoxicity

Compound: RKDVY [TP5, Thymopentin]
- half-life at 10 μg/mL [1, 4]: 0.022 ± 0.004 h
- metabolised at 5 min, 10 μg/mL ([1]; rat plasma, peptide 10 μg/mL, 37 °C, HPLC, three biological replicates, read-out: decrease of plasma concentration after incubation for 5 min): 95%

Compound: polymyxin B [PMB]
- 50% binding rate value (LPS neutralization) [3]: 1 µg/mL
